Source: ChEMBL document CHEMBL2202956, “(±)-Tylopilusins, diphenolic metabolites from the fruiting bodies of Tylopilus eximius” (J Nat Prod, 2012)

Key:
Staphylococcus aureus [1] = assay: Inhibition of yellow pigment production in methicillin-resistant Staphylococcus aureus at 20 ug/6mm disk after 68 hrs by paper disk method; type: functional
Staphylococcus aureus [2] = assay: Toxicity in methicillin-resistant Staphylococcus aureus assessed as growth inhibition at 20 ug/6mm disk after 68 hrs; type: organism-based; conditions: in vitro

| SMILES | inhibition zone (IZ) (Staphylococcus aureus [1]) | Activity (Staphylococcus aureus [2]) |
| --- | --- | --- |
| COC(=O)[C@@]1(O)C(c2ccc(O)cc2)=C(O)C(=O)[C@@]1(O)c1ccc(O)cc1 | 7 mm | Non-toxic |
| COC(=O)[C@@]1(O)C(c2ccc(O)cc2)=C(O)C(=O)[C@@]1(OC)c1ccc(O)cc1 | 8 mm | Non-toxic |
| COC(=O)[C@]1(O)C(c2ccc(O)cc2)=C(O)C(=O)[C@]1(OC)c1ccc(O)cc1 | 9 mm | Non-toxic |
| COC(=O)[C@]1(O)C(c2ccc(O)cc2)=C(O)C(=O)[C@]1(O)c1ccc(O)cc1 | 7 mm | Non-toxic |
